Data reported in patent US6737383B1, “Herbicidal oxadiazolidines” (priority 1999, dated 2004).

What was measured:
[1] = test system: wild oat; assay: Test B pre/postemergence wild oat; type: in vivo, Avena fatua
How it was run: (§1)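 Response is a visual 0-to-10 score relative to untreated plants, where 0 means no effect and 10 means complete control, taken twelve to sixteen days after application. Treatments went onto soil at planting and onto foliage of 1- to 4-leaf plants, using a surfactant-containing non-phytotoxic solvent.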

[2] = test system: cocklebur; assay: Test B pre/postemergence cocklebur; type: in vivo, Xanthium strumarium
How it was run: as §1

[3] = test system: wheat; assay: Test B pre/postemergence wheat; type: in vivo, Triticum aestivum
How it was run: as §1

[4] = test system: crabgrass; assay: Test B pre/postemergence crabgrass; type: in vivo, Digitaria sanguinalis
How it was run: as §1

[5] = Preemergence, Rate 62 g/ha, scale of 0 to 10 where 0 is no effect and 10 is complete control
[6] = Preemergence, Rate 250 g/ha, scale of 0 to 10 where 0 is no effect and 10 is complete control
[7] = Preemergence, Rate 500 g/ha, scale of 0 to 10 where 0 is no effect and 10 is complete control
[8] = Rate 62 g/ha, Postemergence, scale 0 to 10, 0 no effect, 10 complete control
[9] = Rate 125 g/ha, Postemergence, scale of 0 to 10 where 0 is no effect and 10 is complete control
[10] = Rate 250 g/ha, Postemergence, scale of 0 to 10 where 0 is no effect and 10 is complete control
[11] = Rate 500 g/ha, Postemergence, scale 0 to 10, 0 no effect, 10 complete control
[12] = Postemergence, Rate 125 g/ha, scale 0 to 10, 0 is no effect, 10 is complete control
[13] = Postemergence, Rate 250 g/ha, scale 0 to 10, 0 is no effect, 10 is complete control
[14] = Postemergence, Rate 500 g/ha, scale of 0 to 10 where 0 is no effect and 10 is complete control
[15] = Preemergence, Rate 62 g/ha, scale 0 to 10 (0 no effect, 10 complete control)
[16] = Preemergence, Rate 125 g/ha, scale of 0 to 10 where 0 is no effect and 10 is complete control
[17] = Rate 62 g/ha, Postemergence, scale of 0 to 10 where 0 is no effect and 10 is complete control
[18] = Preemergence, Rate 250 g/ha, scale 0 to 10, 0 is no effect, 10 is complete control
[19] = Preemergence, Rate 500 g/ha, scale 0 to 10, 0 is no effect, 10 is complete control

Cc1ccccc1-n1c(=O)on(C(=O)N(c2ccc3ccccc3c2)C(C)C)c1=O [Compound 306]
Wild oats plant response rating [1, 5]: 0
Wild oats plant response rating (0 to 10 scale) ([1]; Preemergence, Rate 125 g/ha): 0
Wild oats plant response rating [1, 6]: 0
Wild oats plant response rating [1, 7]: 0
Wild oats plant response rating [1, 8]: 0
Wild oats plant response rating [1, 9]: 0
Plant response rating, Wild oats [1, 10]: 0
Cocklebur plant response rating [2, 5]: 0
Cocklebur plant response rating (0 to 10 scale) ([2]; Preemergence, Rate 125 g/ha): 0
Cocklebur plant response rating [2, 6]: 0
Cocklebur plant response rating [2, 7]: 0
Cocklebur plant response rating [2, 8]: 0
Cocklebur plant response rating [2, 9]: 0
Plant response rating, Cocklebur [2, 10]: 0
Cocklebur plant response rating [2, 11]: 0
Wheat plant response rating [3, 5]: 0
Wheat plant response rating (0 to 10 scale) ([3]; Preemergence, Rate 125 g/ha): 0
Wheat plant response rating [3, 6]: 0
Wheat plant response rating [3, 7]: 0
Wheat plant response rating [3, 8]: 0
Wheat plant response rating [3, 9]: 0
Plant response rating, Wheat [3, 10]: 0
Crabgrass plant response rating [4, 5]: 0
Crabgrass plant response rating (0 to 10 scale) ([4]; Preemergence, Rate 125 g/ha): 0
Crabgrass plant response rating [4, 6]: 0
Crabgrass plant response rating [4, 7]: 0
Crabgrass plant response rating [4, 8]: 0
Crabgrass plant response rating [4, 9]: 0
Plant response rating, Crabgrass [4, 10]: 0

CC(C)N(C(=O)n1oc(=O)n(CC2CCCC2)c1=O)c1ccc(F)cc1 [Compound 322]
Wild oats plant response rating [1, 5]: 0
Wild oats plant response rating (0 to 10 scale) ([1]; Preemergence, Rate 125 g/ha): 0
Wild oats plant response rating [1, 6]: 2
Wild oats plant response rating [1, 7]: 3
Wild oats plant response rating [1, 8]: 0
Wild oats plant response rating [1, 9]: 0
Plant response rating, Wild oats [1, 10]: 0
Plant response rating, Wild oats [1, 11]: 2
Cocklebur plant response rating [2, 5]: 0
Cocklebur plant response rating (0 to 10 scale) ([2]; Preemergence, Rate 125 g/ha): 0
Cocklebur plant response rating [2, 6]: 0
Cocklebur plant response rating [2, 7]: 4
Cocklebur plant response rating [2, 8]: 0
Cocklebur plant response rating [2, 9]: 0
Plant response rating, Cocklebur [2, 10]: 0
Plant response rating, Cocklebur [2, 11]: 4
Wheat plant response rating [3, 5]: 0
Wheat plant response rating (0 to 10 scale) ([3]; Preemergence, Rate 125 g/ha): 0
Wheat plant response rating [3, 6]: 0
Wheat plant response rating [3, 7]: 0
Wheat plant response rating [3, 8]: 0
Wheat plant response rating [3, 9]: 0
Plant response rating, Wheat [3, 10]: 0
Plant response rating, Wheat [3, 11]: 3
Crabgrass plant response rating [4, 5]: 1
Crabgrass plant response rating (0 to 10 scale) ([4]; Preemergence, Rate 125 g/ha): 2
Crabgrass plant response rating [4, 6]: 5
Crabgrass plant response rating [4, 7]: 7
Crabgrass plant response rating [4, 8]: 0
Crabgrass plant response rating [4, 9]: 0
Plant response rating, Crabgrass [4, 10]: 2
Plant response rating, Crabgrass [4, 11]: 5

CC(C)N(C(=O)n1oc(=O)n(-c2ccc3ccccc3c2)c1=O)c1ccccc1 [Compound 332]
Plant response rating, Wild oats [1, 12]: 0
Wild oats plant response rating [1, 5]: 0
Wild oats plant response rating (0 to 10 scale) ([1]; Preemergence, Rate 125 g/ha): 0
Wild oats plant response rating [1, 6]: 0
Wild oats plant response rating [1, 7]: 0
Wild oats plant response rating [1, 8]: 0
Plant response rating, Wild oats [1, 11]: 0
Plant response rating, Cocklebur [2, 12]: 0
Cocklebur plant response rating [2, 5]: 0
Cocklebur plant response rating (0 to 10 scale) ([2]; Preemergence, Rate 125 g/ha): 0
Cocklebur plant response rating [2, 6]: 0
Cocklebur plant response rating [2, 7]: 0
Cocklebur plant response rating [2, 8]: 0
Plant response rating, Cocklebur [2, 11]: 0
Plant response rating, Wheat [3, 12]: 0
Wheat plant response rating [3, 5]: 0
Wheat plant response rating (0 to 10 scale) ([3]; Preemergence, Rate 125 g/ha): 0
Wheat plant response rating [3, 6]: 0
Wheat plant response rating [3, 7]: 0
Wheat plant response rating [3, 8]: 0
Plant response rating, Wheat [3, 11]: 0
Plant response rating, Crabgrass [4, 12]: 1
Crabgrass plant response rating [4, 5]: 0
Crabgrass plant response rating (0 to 10 scale) ([4]; Preemergence, Rate 125 g/ha): 0
Crabgrass plant response rating [4, 6]: 3
Crabgrass plant response rating [4, 7]: 5
Crabgrass plant response rating [4, 8]: 0
Plant response rating, Crabgrass [4, 11]: 3

CC(C)N(C(=O)n1oc(=O)[nH]c1=O)c1ccc(F)cc1F [Compound 391]
Plant response rating, Wild oats [1, 13]: 0
Wild oats plant response rating [1, 14]: 0
Plant response rating, Wild oats [1, 15]: 0
Plant response rating, Wild oats [1, 16]: 0
Wild oats plant response rating [1, 6]: 0
Wild oats plant response rating [1, 7]: 0
Wild oats plant response rating [1, 17]: 0
Plant response rating, Cocklebur [2, 12]: 0
Plant response rating, Cocklebur [2, 13]: 0
Cocklebur plant response rating [2, 14]: 0
Plant response rating, Cocklebur [2, 15]: 0
Plant response rating, Cocklebur [2, 16]: 0
Cocklebur plant response rating [2, 6]: 0
Cocklebur plant response rating [2, 7]: 0
Cocklebur plant response rating [2, 17]: 0
Plant response rating, Wheat [3, 13]: 0
Wheat plant response rating [3, 14]: 0
Plant response rating, Wheat [3, 15]: 0
Plant response rating, Wheat [3, 16]: 0
Wheat plant response rating [3, 6]: 0
Wheat plant response rating [3, 7]: 0
Wheat plant response rating [3, 17]: 0
Plant response rating, Crabgrass [4, 12]: 0
Plant response rating, Crabgrass [4, 13]: 0
Crabgrass plant response rating [4, 14]: 0
Plant response rating, Crabgrass [4, 15]: 0
Plant response rating, Crabgrass [4, 16]: 0
Crabgrass plant response rating [4, 6]: 0
Crabgrass plant response rating [4, 7]: 0
Crabgrass plant response rating [4, 17]: 0

CC(C)N(C(=O)n1oc(=O)n(C(C)Cl)c1=O)c1ccc(F)cc1 (stereo not shown) [Compound 393]
Wild oats plant response rating [1, 14]: 0
Plant response rating, Wild oats [1, 15]: 0
Plant response rating, Wild oats [1, 16]: 0
Wild oats plant response rating [1, 6]: 0
Wild oats plant response rating [1, 7]: 3
Wild oats plant response rating [1, 17]: 0
Plant response rating, Cocklebur [2, 12]: 0
Plant response rating, Cocklebur [2, 13]: 0
Cocklebur plant response rating [2, 14]: 0
Plant response rating, Cocklebur [2, 15]: 0
Plant response rating, Cocklebur [2, 16]: 0
Cocklebur plant response rating [2, 6]: 0
Cocklebur plant response rating [2, 7]: 0
Cocklebur plant response rating [2, 17]: 0
Wheat plant response rating [3, 14]: 0
Plant response rating, Wheat [3, 15]: 0
Plant response rating, Wheat [3, 16]: 0
Wheat plant response rating [3, 6]: 0
Wheat plant response rating [3, 7]: 0
Wheat plant response rating [3, 17]: 0
Plant response rating, Crabgrass [4, 12]: 1
Plant response rating, Crabgrass [4, 13]: 5
Crabgrass plant response rating [4, 14]: 8
Plant response rating, Crabgrass [4, 15]: 0
Plant response rating, Crabgrass [4, 16]: 2
Crabgrass plant response rating [4, 6]: 3
Crabgrass plant response rating [4, 7]: 8
Crabgrass plant response rating [4, 17]: 0

CC(C)N(C(=O)n1oc(=O)n(CCCC(F)(F)F)c1=O)c1ccc(F)cc1 [Compound 398]
Wild oats plant response rating [1, 14]: 0
Plant response rating, Wild oats [1, 15]: 0
Plant response rating, Wild oats [1, 16]: 3
Wild oats plant response rating [1, 18]: 3
Wild oats plant response rating [1, 19]: 8
Wild oats plant response rating [1, 17]: 0
Plant response rating, Cocklebur [2, 12]: 0
Plant response rating, Cocklebur [2, 13]: 0
Cocklebur plant response rating [2, 14]: 0
Plant response rating, Cocklebur [2, 15]: 0
Plant response rating, Cocklebur [2, 16]: 0
Cocklebur plant response rating [2, 18]: 0
Cocklebur plant response rating [2, 19]: 0
Cocklebur plant response rating [2, 17]: 0
Wheat plant response rating [3, 14]: 3
Plant response rating, Wheat [3, 15]: 0
Plant response rating, Wheat [3, 16]: 0
Wheat plant response rating [3, 18]: 0
Wheat plant response rating [3, 19]: 2
Wheat plant response rating [3, 17]: 0
Plant response rating, Crabgrass [4, 12]: 3
Plant response rating, Crabgrass [4, 13]: 9
Crabgrass plant response rating [4, 14]: 9
Plant response rating, Crabgrass [4, 15]: 9
Plant response rating, Crabgrass [4, 16]: 10
Crabgrass plant response rating [4, 18]: 10
Crabgrass plant response rating [4, 19]: 10
Crabgrass plant response rating [4, 17]: 2
